Measurements as given in US20090143279A1 (priority 2007, published 2009).
Like-named read-outs stand apart in the source and are kept apart here.

Experiments:
mtOXPHOS transcripts = type: cell-based, mouse
[1] = tested on: cellular dehydrogenase activity
OXPHOS gene expression = type: cell-based, mouse
reactive oxygen species = type: cell-based, mouse
nuOXPHOS transcripts = type: cell-based, mouse
[2] = tested on: mitochondrial membrane potential; type: cell-based, mouse
cytochrome c = type: cell-based, mouse
[3] = normalized composite Z-score vs mock-treated (DMSO) wells, Conc 20 μM
[4] = composite Z-score vs DMSO, Conc 20 μM
[5] = composite Z-score vs mock-treated (DMSO) wells, Conc 20 μM
[6] = Conc 20 μM, normalized score vs mock-treated (DMSO) wells
[7] = composite Z-score vs DMSO wells, Conc 20 μM
[8] = 20 μM, composite Z-score vs DMSO

## COC(=O)CC[C@@H](C)[C@H]1CC[C@H]2[C@@H]3[C@H](O)C[C@@H]4C[C@H](O)CC[C@]4(C)[C@H]3C[C@H](O)[C@]12C [cholic acid, methyl ester]
mtOXPHOS transcripts; [3]
  mitoOX: −0.394
[1]; [3]
  MTT: −1.021
OXPHOS gene expression; [3]
  GE-HTS: −0.751
C2C12 myotubes; [3]
  Viability: −0.383
Reactive oxygen species; [3]
  ROS: 0.295
nuOXPHOS transcripts; [3]
  nucOX: −0.852
[2]; [3]
  ΔΨm: 0.065
Cytochrome c; [3]
  cyt c: 0.018

## N[C@H]1C(O)O[C@H](CO)[C@H](O)[C@@H]1O[C@@H]1O[C@H](C(=O)O)[C@@H](O)[C@H](O)[C@H]1O (stereo partly shown) [chondrosine]
mtOXPHOS transcripts; [4]
  mitoOX: −0.476
[1]; [4]
  MTT: −1.759
OXPHOS gene expression; [4]
  GE-HTS: −0.743
C2C12 myotubes; [4]
  Viability: −0.800
Reactive oxygen species; [4]
  ROS: 0.741
nuOXPHOS transcripts; [4]
  nucOX: −0.782
[2]; [4]
  ΔΨm: −1.001
Cytochrome c; [4]
  cyt c: 0.040

## CC1OC(OC2C(O)COC(OC3C(C)OC(OC4C(OC(=O)C56CCC(C)(C)CC5C5=CCC7C8(C)CCC(OC9OC(CO)C(O)C(O)C9O)C(C)(C)C8CCC7(C)C5(C)CC6O)OCC(O)C4O)C(O)C3O)C2O)C(O)C(O)C1O (stereo not shown) [chrysanthellin A]
mtOXPHOS transcripts; [3]
  mitoOX: 0.474
[1]; [3]
  MTT: −4.661
OXPHOS gene expression; [3]
  GE-HTS: −0.126
C2C12 myotubes; [3]
  Viability: −4.075
Reactive oxygen species; [3]
  ROS: −1.565
nuOXPHOS transcripts; [3]
  nucOX: −0.394
[2]; [3]
  ΔΨm: −1.860
Cytochrome c; [3]
  cyt c: −4.088

## CC(C)=CC1C(CO)C1(C)C (stereo not shown) [chrysanthemyl alcohol]
mtOXPHOS transcripts; [3]
  mitoOX: 0.331
[1]; [3]
  MTT: −0.004
OXPHOS gene expression; [3]
  GE-HTS: 0.456
C2C12 myotubes; [3]
  Viability: 0.604
Reactive oxygen species; [3]
  ROS: 0.345
nuOXPHOS transcripts; [3]
  nucOX: 0.495
[2]; [3]
  ΔΨm: −0.734
Cytochrome c; [3]
  cyt c: 0.264

## Cc1cc(O)c2c(O)c3c(O)cccc3cc2c1 [chrysarobin]
mtOXPHOS transcripts; [5]
  mitoOX: −0.401
[1]; [5]
  MTT: −1.646
OXPHOS gene expression; [5]
  GE-HTS: −1.153
C2C12 myotubes; [5]
  Viability: −0.685
Reactive oxygen species; [5]
  ROS: 0.805
nuOXPHOS transcripts; [5]
  nucOX: −1.387
[2]; [5]
  ΔΨm: −0.726
Cytochrome c; [5]
  cyt c: −0.074

## COc1cc(OC)c2c(=O)cc(-c3ccccc3)oc2c1 [chrysin dimethyl ether]
mtOXPHOS transcripts; [6]
  mitoOX (composite Z-score): 0.470
[1]; [6]
  MTT (composite Z-score): −1.043
OXPHOS gene expression; [6]
  GE-HTS (composite Z-score): 0.480
C2C12 myotubes; [6]
  Viability (composite Z-score): −0.006
Reactive oxygen species; [6]
  ROS (composite Z-score): 1.158
nuOXPHOS transcripts; [6]
  nucOX (composite Z-score): 0.444
[2]; [6]
  ΔΨm (composite Z-score): 0.541
Cytochrome c; [6]
  cyt c (composite Z-score): −1.016

## O=c1cc(-c2ccccc2)oc2cc(O)cc(O)c12 [chrysin]
mtOXPHOS transcripts; [7]
  mitoOX: −0.552
[1]; [7]
  MTT: −1.566
OXPHOS gene expression; [7]
  GE-HTS: −0.137
C2C12 myotubes; [7]
  Viability: −0.802
Reactive oxygen species; [7]
  ROS: 0.949
nuOXPHOS transcripts; [7]
  nucOX: 0.071
[2]; [7]
  ΔΨm: −0.941
Cytochrome c
  cyt c: 0.920
Cytochrome c; [7]
  cyt c: 0.655

## COC(=O)C[C@H]1C2(C)CC34OC5(C)O[C@@]6([C@H](OC)C(OC(=O)C(C)C)[C@]7(C)C(/C(=C(/OC)C(C)C)C(=O)O[C@H]7c7ccoc7)[C@@]6(O5)[C@H](OC)[C@@]3(OC)C2OC(C)=O)[C@]14C (stereo partly shown) [chukrasin methyl ether]
mtOXPHOS transcripts; [5]
  mitoOX: 0.198
[1]; [5]
  MTT: −0.818
OXPHOS gene expression; [5]
  GE-HTS: 0.352
C2C12 myotubes; [5]
  Viability: −0.822
Reactive oxygen species; [5]
  ROS: 0.777
nuOXPHOS transcripts; [5]
  nucOX: 0.417
[2]; [5]
  ΔΨm: −1.084
Cytochrome c; [5]
  cyt c: −0.248

## Oc1cc(O)c2c(c1)O[C@H](c1ccc(O)c(O)c1)[C@@H](O)C2 [cianidanol, reference compound]
mtOXPHOS transcripts; [7]
  mitoOX: 0.347
[1]; [7]
  MTT: −1.471
OXPHOS gene expression; [7]
  GE-HTS: −0.113
C2C12 myotubes; [7]
  Viability: 0.630
Reactive oxygen species; [7]
  ROS: −0.371
nuOXPHOS transcripts; [7]
  nucOX: −0.357
[2]; [7]
  ΔΨm: −1.746
Cytochrome c; [7]
  cyt c: 0.639

## Cc1cc(C2CCCCC2)n(O)c(=O)c1 [ciclopirox olamine]
mtOXPHOS transcripts; [8]
  mitoOX: −0.569
[1]; [8]
  MTT: −3.390
OXPHOS gene expression; [8]
  GE-HTS: −0.965
C2C12 myotubes; [8]
  Viability: −1.409
Reactive oxygen species; [8]
  ROS: −1.545
nuOXPHOS transcripts; [8]
  nucOX: −1.098
[2]; [8]
  ΔΨm: 2.355
Cytochrome c; [8]
  cyt c: −0.381

## CC1=C2C(=CO[C@H](C)[C@H]2C)C(O)=C(C(=O)O)C1=O [citrinin]
mtOXPHOS transcripts; [7]
  mitoOX: 0.218
[1]; [7]
  MTT: −0.980
OXPHOS gene expression; [7]
  GE-HTS: 0.608
C2C12 myotubes; [7]
  Viability: −0.040
Reactive oxygen species; [7]
  ROS: 0.122
nuOXPHOS transcripts; [7]
  nucOX: 0.730
[2]; [7]
  ΔΨm: −0.590
Cytochrome c; [7]
  cyt c: 0.012

## CC[C@H]1OC(=O)[C@H](C)[C@@H](O[C@H]2C[C@@](C)(OC)[C@@H](O)[C@H](C)O2)[C@H](C)[C@@H](O[C@@H]2O[C@H](C)C[C@H](N(C)C)[C@H]2O)[C@](C)(OC)C[C@@H](C)C(=O)[C@H](C)[C@@H](O)[C@]1(C)O [clarithromycin]
mtOXPHOS transcripts; [4]
  mitoOX: −1.928
[1]; [4]
  MTT: −1.086
OXPHOS gene expression; [4]
  GE-HTS: −2.161
C2C12 myotubes; [4]
  Viability: −0.763
Reactive oxygen species; [4]
  ROS: 0.293
nuOXPHOS transcripts; [4]
  nucOX: −2.046
[2]; [4]
  ΔΨm: 0.434
Cytochrome c; [4]
  cyt c: −1.095
